The target in assay [1] is T1, hGHR (Homo sapiens, UniProt P10912).
T1 construct: previously reported to express high levels of endogenous hGHR; host or cells: SK-MEL-28, MALME-3M, IM9
T1 sequence (P10912 19-638): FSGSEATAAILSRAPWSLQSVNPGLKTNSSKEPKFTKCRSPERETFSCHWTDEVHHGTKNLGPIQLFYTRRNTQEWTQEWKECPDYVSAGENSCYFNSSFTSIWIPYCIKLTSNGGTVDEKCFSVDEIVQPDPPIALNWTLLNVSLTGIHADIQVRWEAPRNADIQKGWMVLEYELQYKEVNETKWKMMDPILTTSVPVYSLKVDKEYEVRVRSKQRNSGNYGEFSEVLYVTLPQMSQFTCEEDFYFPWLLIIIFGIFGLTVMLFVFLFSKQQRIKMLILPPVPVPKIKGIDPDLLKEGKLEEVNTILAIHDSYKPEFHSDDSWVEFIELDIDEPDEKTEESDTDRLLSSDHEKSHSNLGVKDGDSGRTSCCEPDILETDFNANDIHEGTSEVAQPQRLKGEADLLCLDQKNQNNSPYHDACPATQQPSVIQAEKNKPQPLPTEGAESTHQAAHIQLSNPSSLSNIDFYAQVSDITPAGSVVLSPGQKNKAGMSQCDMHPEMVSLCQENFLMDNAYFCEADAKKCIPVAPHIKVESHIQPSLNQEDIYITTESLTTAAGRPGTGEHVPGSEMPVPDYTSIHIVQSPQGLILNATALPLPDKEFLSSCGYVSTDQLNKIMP
The experiment in a line: hGH-mediated pSTAT5 in SK-MEL-28 cells, ELISA. It counts as cell-based. Conditions: SK-MEL-28, 20 min, ELISA (pSTAT5A Y694/pSTAT5B Y699), SK-MEL-28 cells co-treated with hGH and 200 nM peptide, Equation 2, triplicate. The protocol: SK-MEL-28, MALME-3M, and T84 cells were grown and maintained in Eagle's Minimal Essential Medium. IM9 and L cells were grown in RPMI-1640 media and Dulbecco's modified Eagle's medium, respectively. All growth media was supplemented with 10% fetal bovine serum and 1× antibiotic-antimycotic […] solution. Cells were grown at 37 °C under a 5% CO2 atmosphere in a humidified incubator, and growth media was replaced every 48 h during incubation. No hGH was present in or added to the growth media unless specifically indicated. Between 12 to 16 h after seeding, adherent cells (SK-MEL-28, MALME-3M, T84, L cells) were switched to serum-free growth media (no GH) and starved for 4 h before the addition of hGH, bGH (L cells), hPRL (MALME-3M and T84 cells), or buffer at the concentrations noted. Cells were then allowed to incubate for an additional 20 min before being harvested. For suspended cell treatments, IM9 cells were pelleted by centrifugation at 140g for 5 min at room temperature. The supernatant was then removed by aspiration, and the cells were resuspended in serum-free media. The cells were then starved for 4 h at 37 °C under a 5% CO2 atmosphere in a humidified incubator and subsequently treated with hGH, S1H, or both at the indicated concentrations for 20 min before harvesting by centrifugation.
Following treatment, the cells were harvested at the indicated time points, and the total protein was extracted. To affect protein extraction, the treatment media was removed by aspiration, and the cells were washed twice with ice-cold PBS. Following washing, total protein was extracted from the cells using RIPA buffer (100 μl/million cells) supplemented with 1.5× Halt protease and phosphatase inhibitor cocktail. Briefly, chilled RIPA buffer was added to the cells, and the lysis reaction was allowed to incubate for 5 min at 4 °C. Adherent cells were harvested for lysis using a sterile cell scraper. The resultant cell suspensions were sonicated on ice for 60 s with ON (2-s)/OFF (1-s) pulses at 2% power. The cell lysate was then cleared by centrifugation at 8000g for 10 min at 4 °C. Following centrifugation, the supernatant was collected and stored at −80 °C until further use. Sample protein concentration was quantified using a Bradford assay with bovine serum albumin as the protein standard. Absorbance at 595 nm was measured using a Spectramax 250 multimode plate reader (Molecular Devices) and processed using SoftmaxPro v4.7.1 software.
Intracellular pSTAT5A (Y694) and pSTAT5B (Y699) levels were quantified from clarified protein samples using an InstantOne ELISA kit (Thermo Fisher) according to the manufacturer’s instructions. Briefly, 50 μl of protein sample (1 mg/ml) were added to wells containing 50 μl antibody cocktail in a 96-well plate and incubated at room temperature for 2 h with shaking (300 rpm). Following incubation, the wells were washed, and the bound antibodies were detected by adding detection regent and incubating the plate for 1 h at room temperature with shaking (300 rpm). Following incubation, stop reagent was added, and the absorbance was read at 450 nm using a UV-VIS spectrophotometer (Molecular Devices, model M2). All experiments were performed in triplicate. Percent pSTAT5 inhibition was calculated from background-subtracted pSTAT5 levels using Equation 2:(2) %inhibition=100×(pSTAT5hGH−pSTAT5PI)/pSTAT5hGH where pSTAT5hGH is the fold-induction of pSTAT5 upon treatment with hGH alone and pSTAT5PI is the fold-induction of pSTAT5 upon co-treatment with hGH and peptide inhibitor.

The target of assay [2] is T1, hGHR. Kind of assay: hGH-mediated pSTAT5 in SK-MEL-28 cells, Western blot. The class given is cell-based. Particulars: 20 min, Western blot densitometry, n = 3. On the procedure:
SK-MEL-28, MALME-3M, and T84 cells were grown and maintained in Eagle's Minimal Essential Medium. IM9 and L cells were grown in RPMI-1640 media and Dulbecco's modified Eagle's medium, respectively. All growth media was supplemented with 10% fetal bovine serum and 1× antibiotic-antimycotic […] solution. Cells were grown at 37 °C under a 5% CO2 atmosphere in a humidified incubator, and growth media was replaced every 48 h during incubation. No hGH was present in or added to the growth media unless specifically indicated. […]
Following treatment, the cells were harvested at the indicated time points, and the total protein was extracted. […] Sample protein concentration was quantified using a Bradford assay with bovine serum albumin as the protein standard. Absorbance at 595 nm was measured using a Spectramax 250 multimode plate reader (Molecular Devices) and processed using SoftmaxPro v4.7.1 software.
Cytosolic fractions from treated cells were thawed on ice, and 80 μg protein was loaded onto polyacrylamide gels for separation by SDS-PAGE. […] Chemiluminescence signals were detected using a GelDoc (BioRad) fluorescence imager. […] Percent inhibition was then measured by subtracting the pSTAT5 band intensity in each lane from the pSTAT5 band intensity of hGH-treated samples. […]

Molecules are shown by their SMILES.

We go through one compound from paper PMC8086144, “A novel peptide antagonist of the human growth hormone receptor” (The Journal of Biological Chemistry, 2021).

Regarding `CC[C@H](C)[C@H](NC(=O)[C@H](Cc1ccc(O)cc1)NC(C)=O)C(=O)N1CCC[C@H]1C(=O)N[C@@H](CCCCN)C(=O)N[C@@H](CCC(=O)O)C(=O)N[C@@H](CCC(N)=O)C(=O)N[C@@H](CCCCN)C(=O)N[C@@H](Cc1ccc(O)cc1)C(=O)N[C@@H](CO)C(=O)N[C@@H](Cc1ccccc1)C(=O)N[C@@H](CC(C)C)C(=O)N[C@@H](CCC(N)=O)C(=O)N[C@@H](CC(N)=O)C(=O)N1CCC[C@H]1C(=O)N[C@@H](CCC(N)=O)C(=O)N[C@H](C(N)=O)[C@@H](C)O` [S1H], the inhibition at 0.2 µM at hGHR [1] is 98.3%. Besides, the “suppression of hGH-mediated pSTAT5” value at hGHR [2] (100 nM S1H with 2.5 nM hGH) was determined as 46%; on hGHR [2] (200 nM S1H with 2.5 nM hGH) it was 67%.
